Experiment [1] deals with HCV replicon in HUH-7 cells. Put plainly: HCV replicon FRET assay. Format: cell-based, Hepatitis C virus (strain 1b). The settings on record: Table 1. An excerpt: An HCV replicon whole cell system was established as described by Lohmann V, Korner F, Koch J, Herian U, Theilmann L, Bartenschlager R., Science 285(5424): 110-3 (1999). This system enabled us to evaluate the effects of our HCV Protease compounds on HCV RNA replication. Briefly, using the HCV strain 1b sequence described in the Lohmann paper (Assession number: AJ238799), an HCV cDNA was synthesized by Operon Technologies, Inc. (Alameda, Calif.), and the full-length replicon was then assembled in plasmid pGem9zf(+) (Promega, Madison, Wis.) using standard molecular biology techniques. The replicon consists of (i) the HCV 5′ UTR fused to the first 12 amino acids of the capsid protein, (ii) the neomycin phosphotransferase gene (neo), (iii) the IRES from encephalomyocarditis virus (EMCV), and (iv) HCV NS3 to NS5B genes and the HCV 3′ UTR. Plasmid DNAs were linearized with ScaI and RNA transcripts were synthesized in vitro using the T7 MegaScript transcription kit (Ambion, Austin, Tex.) according to manufacturer's directions. In vitro transcripts of the cDNA were transfected into the human hepatoma cell line, HUH-7. […] Resulting cell lines were characterized for positive and negative strand RNA production and protein production over time.
The HCV replicon FRET assay was developed to monitor the inhibitory effects of compounds described in the disclosure on HCV viral replication. HUH-7 cells, constitutively expressing the HCV replicon, were grown in Dulbecco's Modified Eagle Media (DMEM) (Gibco-BRL) containing 10% Fetal calf serum (FCS) (Sigma) and 1 mg/ml G418 (Gibco-BRL). Cells were seeded the night before (1.5×10^4 cells/well) in 96-well tissue-culture sterile plates. Compound and no compound controls were prepared in DMEM containing 4% FCS, 1:100 Penicillin/Streptomysin (Gibco-BRL), 1:100 L-glutamine and 5% DMSO in the dilution plate (0.5% DMSO final concentration in the assay). Compound/DMSO mixes were added to the cells and incubated for 4 days at 37° C. After 4 days, cells were first assessed for cytotoxicity using alamar Blue (Trek Diagnotstic Systems) for a CC50 reading. The toxicity of compound (CC50) was determined by adding 1/10th volume of alamarBlue to the media incubating the cells. After 4 h, the fluorescence signal from each well was read, with an excitation wavelength at 530 nm and an emission wavelength of 580 nm, using the Cytofluor Series 4000 (Perspective Biosystems). Plates were then rinsed thoroughly with Phosphate-Buffered Saline (PBS) (3 times 150 μl). The cells were lysed with 25 μl of a lysis assay reagent containing an HCV protease substrate (5× cell Luciferase cell culture lysis reagent (Promega #E153A) diluted to 1× with distilled water, NaCl added to 150 mM final, the FRET peptide substrate (as described for the enzyme assay above) diluted to 10 μM final from a 2 mM stock in 100% DMSO. The plate was then placed into the Cytofluor 4000 instrument which had been set to 340 nm excitation/490 nm emissions, automatic mode for 21 cycles and the plate read in a kinetic mode. EC50 determinations were carried out as described for the IC50 determinations.
(In general: A replicon is a self-replicating genome or part of one, used to study replication in cells.)

Experiment [2] concerns the target T1, HCV NS3/4A protease complex (BMS strain) (UniProt P27958).
T1 construct: other: HCV NS3/4A enzyme assay; said of H77 and J4L6S; fused on or other part: Three-lysine solubilising tail at the NS4A C-terminus and a His tag from pET21b (Ni-NTA purification), for the H77 and J4L6S constructs
As to the kind of experiment: FRET peptide assay to monitor HCV NS3/4A proteolytic activity, BMS strain. The note with it: read-out: IC50 Range; HCV NS3/4A enzyme assay; Table 1. It is filed as biochemical, Hepatitis C virus (genotype 1a). An excerpt: HCV NS3 protease complexes, derived from the BMS strain, H77 strain or J4L6S strain, were generated, as described below. These purified recombinant proteins were generated for use in a homogeneous assay (see below) to provide an indication of how effective compounds of the present disclosure would be in inhibiting HCV NS3 proteolytic activity.
Serum from an HCV-infected patient was obtained from Dr. T. Wright, San Francisco Hospital. An engineered full-length cDNA (compliment deoxyribonucleic acid) template of the HCV genome (BMS strain) was constructed from DNA fragments obtained by reverse transcription-PCR (RT-PCR) of serum RNA (ribonucleic acid) and using primers selected on the basis of homology between other genotype 1a strains. From the determination of the entire genome sequence, a genotype 1a was assigned to the HCV isolate according to the classification of Simmonds et al. (See P Simmonds, K A Rose, S Graham, S W Chan, F McOmish, B C Dow, E A Follett, P L Yap and […] Marsden, J. Clin. Microbiol., 31(6), 1493-1503 (1993)). […] The infectious clones, H77 (1a genotype) and J4L6S (1b genotype) were obtained from R. Purcell (NIH) and the sequences are published in Genbank (AAB67036, see Yanagi, M., Purcell, R. H., Emerson, S. U. and Bukh, J. Proc. Natl. Acad. Sci. U.S.A. 94(16), 8738-8743 (1997); AF054247, see Yanagi, M., St Claire, M., Shapiro, M., Emerson, S. U., Purcell, R. H. and Bukh, J, Virology 244 (1), 161-172. (1998)).
NS3/4A protease complex-containing fractions were pooled and loaded on a desalting column Superdex-S200 pre-equilibrated with buffer D (25 mM HEPES, pH 7.5, 20% glycerol, 300 mM NaCl, 0.2% Triton X-100, 10 mM βME). Sample was loaded at a flow rate of 1 mL/min. NS3/4A protease complex-containing fractions were pooled and concentrated to approximately 0.5 mg/ml. The purity of the NS3/4A protease complexes, derived from the BMS, H77 and J4L6S strains, were judged to be greater than 90% by SDS-PAGE and mass spectrometry analyses. The enzyme was stored at −80° C., thawed on ice and diluted prior to use in assay buffer.
The purpose of this in vitro assay was to measure the inhibition of HCV NS3 protease complexes, derived from the BMS strain, H77 strain or J4L6S strain, as described above, by compounds of the present disclosure. This assay provides an indication of how effective compounds of the present disclosure would be in inhibiting HCV NS3 proteolytic activity.
In order to monitor HCV NS3/4A protease activity, an NS3/4A peptide substrate was used. The substrate was RET S1 (Resonance Energy Transfer Depsipeptide Substrate; AnaSpec, Inc. cat # 22991) (FRET peptide), described by Taliani et al. in Anal. Biochem. 240(2):60-67 (1996). The sequence of this peptide is loosely based on the NS4A/NS4B natural cleavage site for the HCV NS3 protease except there is an ester linkage rather than an amide bond at the cleavage site. The peptide also contains a fluorescence donor, EDANS, near one end of the peptide and an acceptor, DABCYL, near the other end. The fluorescence of the peptide is quenched by […] resonance energy transfer (RET) between the donor and the acceptor, but as the NS3 protease cleaves the peptide the products are released from RET quenching and the fluorescence of the donor becomes apparent.
The peptide substrate was incubated with one of the three recombinant NS3/4A protease complexes, in the absence or presence of a compound of the present disclosure. The inhibitory effects of a compound were determined by monitoring the formation of fluorescent reaction product in real time using a Cytofluor Series 4000.
Assay buffer: 50 mM HEPES, pH 7.5; 0.15 M NaCl; 0.1% Triton; 15% Glycerol; 10 mM βME. Substrate: 2 μM final concentration (from a 2 mM stock solution in DMSO stored at −20° C.). HCV NS3/4A protease type 1a (1b), 2-3 nM final concentration (from a 5 μM stock solution in 25 mM HEPES, pH 7.5, 20% glycerol, 300 mM NaCl, 0.2% Triton-X100, 10 mM βME). […]

[3] abbreviates: read-out: EC50 Range, HCV replicon cell assay.
[4] abbreviates: Hepatitis C virus, Huh-7, read-out: EC50 Range, HCV replicon cell assay.

pEC50, pIC50: −log10 of the molar value. Like-named read-outs stand apart in the source and are kept apart here. Where only a bound is given, the exact number is not on record here.

T1 sequence (P27958 1027-1657, one chain of several): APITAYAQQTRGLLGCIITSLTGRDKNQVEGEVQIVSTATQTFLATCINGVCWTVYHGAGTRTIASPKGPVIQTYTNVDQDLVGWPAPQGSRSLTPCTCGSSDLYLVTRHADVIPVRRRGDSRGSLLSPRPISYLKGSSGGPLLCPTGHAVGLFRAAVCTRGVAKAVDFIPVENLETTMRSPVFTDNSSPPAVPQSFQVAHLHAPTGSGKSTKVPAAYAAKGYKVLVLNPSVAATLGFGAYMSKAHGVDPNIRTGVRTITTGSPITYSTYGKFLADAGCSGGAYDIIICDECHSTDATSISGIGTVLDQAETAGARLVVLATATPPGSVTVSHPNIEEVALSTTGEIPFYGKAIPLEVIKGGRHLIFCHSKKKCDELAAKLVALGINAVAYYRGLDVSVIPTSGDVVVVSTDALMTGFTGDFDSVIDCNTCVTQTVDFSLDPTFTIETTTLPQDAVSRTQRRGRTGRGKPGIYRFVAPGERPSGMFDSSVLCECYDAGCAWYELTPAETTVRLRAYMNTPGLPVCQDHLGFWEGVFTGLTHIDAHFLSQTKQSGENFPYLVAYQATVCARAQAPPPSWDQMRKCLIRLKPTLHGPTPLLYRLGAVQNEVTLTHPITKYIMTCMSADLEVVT

Turning to `C=C[C@@H]1C[C@]1(NC(=O)[C@@H]1C[C@@H](Oc2nccc3cc(OC)ccc23)CN1C(=O)[C@@H](O)C(C)C)C(=O)NS(=O)(=O)C1CC1` [Example 50Compound 50], the negative logarithm of the EC50 (pEC50) in experiment [1] (setting [3]) is 5.30 to 6.30. The pIC50 in experiment [2] was 6.00 to 7.00.
For `C=C[C@@H]1C[C@]1(NC(=O)[C@@H]1C[C@@H](Oc2cc(-c3ccccc3)nc3cc(OC)ccc23)CN1C(=O)[C@@H](OC(=O)Nc1ccccc1)C(C)(C)C)C(=O)NS(=O)(=O)C1CC1` [Example 5,Compound 4], in experiment [1] (setting [4]), the pEC50 is over 6.30. Moreover, the pIC50 in experiment [2] is over 7.00.
For `C=C[C@@H]1C[C@]1(NC(=O)[C@@H]1C[C@@H](Oc2nccc3cc(OC)ccc23)CN1C(=O)[C@@H](OC(=O)NC(C)(C)C)C(C)(C)C)C(=O)NS(=O)(=O)c1ccccc1` [Example 59Compound 59] the same measures were 5.30 to 6.30 and 6.00 to 7.00.
With `C=C[C@@H]1C[C@]1(NC(=O)[C@@H]1C[C@@H](Oc2nccc3ccccc23)CN1C(=O)[C@@H](OC(=O)NC1CCCC1)C(C)(C)C)C(=O)NS(=O)(=O)C1CC1` [Example 9], the pEC50 in experiment [1] (setting [4]) is 5.30 to 6.30. Also, in experiment [2], the negative logarithm of the IC50 (pIC50) was 6.00 to 7.00.
Consider `C=C[C@@H]1C[C@]1(NC(=O)[C@@H]1C[C@@H](Oc2cc(-c3ccccc3)nc3cc(OC)ccc23)CN1C(=O)[C@@H](O)c1ccccc1)C(=O)NS(=O)(=O)C1CC1` [Example 4,Compound 1], for which, in experiment [1] (setting [4]), the pEC50 is under 5.30. Moreover, the pIC50 in experiment [2] was 6.00 to 7.00.
Taken in the same sequence, the figures for `C=C[C@@H]1C[C@]1(NC(=O)[C@@H]1C[C@@H](Oc2nccc3cc(OC)ccc23)CN1C(=O)[C@@H](OC(=O)NC(C)(C)C)C(C)(C)C)C(=O)NS(=O)(=O)N(C)C` [Example 58Compound 58] were 5.30 to 6.30 and over 7.00.
For `C=C[C@@H]1C[C@]1(NC(=O)[C@@H]1C[C@@H](Oc2nccc3ccccc23)CN1C(=O)[C@@H](OC(=O)NC(C)(C)C)C(C)(C)C)C(=O)NS(=O)(=O)C1CC1` [Example 24] the same measures were 5.30 to 6.30 and 6.00 to 7.00.
With `C=C[C@@H]1C[C@]1(NC(=O)[C@@H]1C[C@@H](Oc2cc(-c3ccccc3)nc3cc(OC)ccc23)CN1C(=O)[C@@H](O)C1CCCCC1)C(=O)NS(=O)(=O)C1CC1` [Example 4,Compound 4], the pEC50 in experiment [1] (setting [4]) is 5.30 to 6.30. Besides, the pIC50 in experiment [2] is over 7.00.
For `C=C[C@@H]1C[C@]1(NC(=O)[C@@H]1C[C@@H](Oc2nc(-c3ccc(OC(F)(F)F)cc3)cc3cc(OC)ccc23)CN1C(=O)[C@@H](O)[C@@H](C)CC)C(=O)NS(=O)(=O)C1CC1` [Example 61Compound 61] the same measures were 5.30 to 6.30 and 6.00 to 7.00.
As for `C=C[C@@H]1C[C@]1(NC(=O)[C@@H]1C[C@@H](Oc2nccc3cc(OC)ccc23)CN1C(=O)[C@@H](OC(=O)NC1CCCC1)C(C)C)C(=O)NS(=O)(=O)C1CC1` [Example 51Compound 51], the pEC50 in experiment [1] (setting [3]) is 5.30 to 6.30. For the same compound, the pIC50 in experiment [2] is over 7.00.
Take `C=C[C@@H]1C[C@]1(NC(=O)[C@@H]1C[C@@H](Oc2nccc3cc(OC)ccc23)CN1C(=O)[C@@H](OC(=O)NC1(C(F)(F)F)CC1)C(C)C)C(=O)NS(=O)(=O)C1CC1` [Example 54Compound 54]: in experiment [1] (setting [4]), the pEC50 was 5.30 to 6.30. In addition, the pIC50 in experiment [2] was 6.00 to 7.00.
Consider `CCC1C[C@]1(NC(=O)[C@@H]1C[C@@H](Oc2cc(-c3ccccc3)nc3cc(OC)ccc23)CN1C(=O)C1(O)CC1)C(=O)NS(=O)(=O)C1CC1` (stereo partly shown) [Example 15], for which the negative logarithm of the EC50 (pEC50) in experiment [1] (setting [4]) is 5.30 to 6.30. For the same compound, the pIC50 in experiment [2] was 6.00 to 7.00.
Taken in the same sequence, the figures for `C=C[C@@H]1C[C@]1(NC(=O)[C@@H]1C[C@@H](Oc2nccc3ccccc23)CN1C(=O)[C@@H](OC(=O)Nc1ccccc1OC)C(C)(C)C)C(=O)NS(=O)(=O)C1CC1` [Example 29] were 5.30 to 6.30 and 6.00 to 7.00.
Consider `CCC1C[C@]1(NC(=O)[C@@H]1C[C@@H](Oc2cc(-c3ccccc3)nc3cc(OC)ccc23)CN1C(=O)C(O)C(C)(C)C)C(=O)NS(=O)(=O)C1CC1` (stereo partly shown) [Example 10], for which the pEC50 in experiment [1] (setting [4]) is 5.30 to 6.30. Moreover, in experiment [2], the pIC50 was over 7.00.
For `C=C[C@@H]1C[C@]1(NC(=O)[C@@H]1C[C@@H](Oc2cc(-c3ccccc3)nc3cc(OC)ccc23)CN1C(=O)[C@@H](OC(=O)Nc1ccc(OC)cc1C)C(C)(C)C)C(=O)NS(=O)(=O)C1CC1` [Example 5,Compound 6] the same measures were 5.30 to 6.30 and 6.00 to 7.00.
Regarding `C=C[C@@H]1C[C@]1(NC(=O)[C@@H]1CC(Oc2cc(-c3ccccc3)nc3cc(OC)ccc23)CN1C(=O)[C@@H](O)C(C)(C)C)C(=O)NS(=O)(=O)C1(CC2CC2)CC1` (stereo partly shown) [Example 12], in experiment [1] (setting [4]), the negative-log EC50 (pEC50) was 5.30 to 6.30. The negative logarithm of the IC50 (pIC50) in experiment [2] was over 7.00.
For `CCC1C[C@]1(NC(=O)[C@@H]1C[C@@H](Oc2cc(-c3ccccc3)nc3cc(OC)ccc23)CN1C(=O)C(O)C(C)C)C(=O)NS(=O)(=O)C1CC1` (stereo partly shown) [Example 11] the same measures were 5.30 to 6.30 and over 7.00.

In general, pEC50 refers to the EC50 on a negative log10 scale, so that one unit is a factor of ten. By pIC50 is commonly meant the IC50 on a negative log10 scale, so that one unit is a factor of ten.

The values are drawn from patent US7323447B2, “Hepatitis C virus inhibitors” (Bristol-Myers Squibb Company, priority 2005, dated 2008).
